Laboratory results: patent publication US10183022B2, “Pharmaceutical composition for treating ulcerative colitis” (EA Pharma Co., Ltd., priority 2014, dated 2019)

Experiments:
[1] = tested on: ulcerative colitis patients in an active stage; assay: Clinical study, 960 mg orally 3 times a day for 8 weeks: subscore for physician's global assessment of Mayo score; type: in vivo, human
Procedure: (§1) The compound of Example 1 or the compound of Comparative Example 1 was orally administered after meals 3 times a day. The number of the given tablets was 8 per administration (i.e., the amount of the compound (1) of Example 1 administered was 960 mg per administration). The administration period was 8 weeks. The compounds were administered until the timing after the breakfast on the day before the assessment day at Week 8.
(4) Physician's Global Assessment [Investigation Timings: Weeks 0, 2, 4, and 8 (or Discontinuation Time)]
The investigators or sub-investigators conducted a medical interview with the subjects (for abdominal discomfort, systemic state, investigator's finding, subject's impression, and so forth), and investigated the state on each assessment day.
The investigators or sub-investigators scored the physician's global assessment according to the following criteria with reference to the other three assessment criteria (stool frequency, bloody stool, and mucosal finding), as well as the abdominal discomfort, systemic state, investigator's finding, subject's impression, and so forth. Note that, on the days of the assessment performed without an endoscope, no mucosal finding was considered in scoring the physician's global assessment.

[2] = tested on: ulcerative colitis patients in an active stage; assay: Clinical study, 960 mg orally 3 times a day for 8 weeks: subscore for stool frequency of Mayo score; type: in vivo, human; set-up: Cases by subscore for stool frequency, figure in parentheses: unit not given here
Procedure: as §1
[Investigation Timings: Weeks 0, 2, 4, and 8 (or Discontinuation Time)]
Based on the contents described in the symptom-recording diaries and so on, the investigators or sub-investigators investigated stool frequencies in 3 days immediately before each assessment day. Note that when the endoscopic examination on the large intestine was conducted, the investigation days were set to be the closest three days excluding the day of the endoscopic examination on the large intestine, the following day, and if a pre-treatment was performed for the endoscopic examination on the large intestine, the pre-treatment day.
The investigators or sub-investigators investigated the stool frequency per day before the primary disease appeared, which served as a “normal frequency.” An average value (rounded to the nearest whole number) of the stool frequencies of the investigated three days was compared with the “normal frequency,” and scored according to the following criteria.

Structure (SMILES): COC(=O)[C@H](Cc1ccc(-n2c(=O)c3cc(N(C)C)ccc3n(C)c2=O)cc1)NC(=O)c1c(Cl)cccc1Cl [Example 1, methyl(2S)-2-(2,6-dichlorobenzamide)-3-{4-[6-(dimethylamino)-1-methyl-2,4-dioxo-1,4-dihydroquinazolin-3(2H)-yl]phenyl}propanoate]
- Number of cases, cross tabulation of subscore for physician's global assessment ([1]; Week 2 score 0, Week 0 score 0): 0
- Number of cases, cross tabulation of subscore for physician's global assessment ([1]; Week 2 score 0, Week 0 score 1): 0
- Number of cases, cross tabulation of subscore for physician's global assessment ([1]; Week 2 score 0, Week 0 score 2): 3
- Number of cases, cross tabulation of subscore for physician's global assessment ([1]; Week 2 score 0, Week 0 score 3): 0
- Number of cases, cross tabulation of subscore for physician's global assessment ([1]; Week 2 score 1, Week 0 score 0): 0
- Number of cases, cross tabulation of subscore for physician's global assessment ([1]; Week 2 score 1, Week 0 score 1): 3
- Number of cases, cross tabulation of subscore for physician's global assessment ([1]; Week 2 score 1, Week 0 score 2): 19
- Number of cases, cross tabulation of subscore for physician's global assessment ([1]; Week 2 score 1, Week 0 score 3): 0
- Number of cases, cross tabulation of subscore for physician's global assessment ([1]; Week 2 score 2, Week 0 score 0): 0
- Number of cases, cross tabulation of subscore for physician's global assessment ([1]; Week 2 score 2, Week 0 score 1): 0
- Number of cases, cross tabulation of subscore for physician's global assessment ([1]; Week 2 score 2, Week 0 score 2): 26
- Number of cases, cross tabulation of subscore for physician's global assessment ([1]; Week 2 score 2, Week 0 score 3): 0
- Number of cases, cross tabulation of subscore for physician's global assessment ([1]; Week 2 score 3, Week 0 score 0): 0
- Number of cases, cross tabulation of subscore for physician's global assessment ([1]; Week 2 score 3, Week 0 score 1): 0
- Number of cases, cross tabulation of subscore for physician's global assessment ([1]; Week 2 score 3, Week 0 score 2): 0
- Number of cases, cross tabulation of subscore for physician's global assessment ([1]; Week 2 score 3, Week 0 score 3): 0
- Number of cases, cross tabulation of subscore for physician's global assessment ([1]; Week 4 score 0, Week 0 score 0): 0
- Number of cases, cross tabulation of subscore for physician's global assessment ([1]; Week 4 score 0, Week 0 score 1): 0
- Number of cases, cross tabulation of subscore for physician's global assessment ([1]; Week 4 score 0, Week 0 score 2): 7
- Number of cases, cross tabulation of subscore for physician's global assessment ([1]; Week 4 score 0, Week 0 score 3): 0
- Number of cases, cross tabulation of subscore for physician's global assessment ([1]; Week 4 score 1, Week 0 score 0): 0
- Number of cases, cross tabulation of subscore for physician's global assessment ([1]; Week 4 score 1, Week 0 score 1): 3
- Number of cases, cross tabulation of subscore for physician's global assessment ([1]; Week 4 score 1, Week 0 score 2): 23
- Number of cases, cross tabulation of subscore for physician's global assessment ([1]; Week 4 score 1, Week 0 score 3): 0
- Number of cases, cross tabulation of subscore for physician's global assessment ([1]; Week 4 score 2, Week 0 score 0): 0
- Number of cases, cross tabulation of subscore for physician's global assessment ([1]; Week 4 score 2, Week 0 score 1): 0
- Number of cases, cross tabulation of subscore for physician's global assessment ([1]; Week 4 score 2, Week 0 score 2): 18
- Number of cases, cross tabulation of subscore for physician's global assessment ([1]; Week 4 score 2, Week 0 score 3): 0
- Number of cases, cross tabulation of subscore for physician's global assessment ([1]; Week 4 score 3, Week 0 score 0): 0
- Number of cases, cross tabulation of subscore for physician's global assessment ([1]; Week 4 score 3, Week 0 score 1): 0
- Number of cases, cross tabulation of subscore for physician's global assessment ([1]; Week 4 score 3, Week 0 score 2): 0
- Number of cases, cross tabulation of subscore for physician's global assessment ([1]; Week 4 score 3, Week 0 score 3): 0
- Number of cases, cross tabulation of subscore for physician's global assessment ([1]; Week 8 score 0, Week 0 score 0): 0
- Number of cases, cross tabulation of subscore for physician's global assessment ([1]; Week 8 score 0, Week 0 score 1): 1
- Number of cases, cross tabulation of subscore for physician's global assessment ([1]; Week 8 score 0, Week 0 score 2): 6
- Number of cases, cross tabulation of subscore for physician's global assessment ([1]; Week 8 score 0, Week 0 score 3): 0
- Number of cases, cross tabulation of subscore for physician's global assessment ([1]; Week 8 score 1, Week 0 score 0): 0
- Number of cases, cross tabulation of subscore for physician's global assessment ([1]; Week 8 score 1, Week 0 score 1): 2
- Number of cases, cross tabulation of subscore for physician's global assessment ([1]; Week 8 score 1, Week 0 score 2): 28
- Number of cases, cross tabulation of subscore for physician's global assessment ([1]; Week 8 score 1, Week 0 score 3): 0
- Number of cases, cross tabulation of subscore for physician's global assessment ([1]; Week 8 score 2, Week 0 score 0): 0
- Number of cases, cross tabulation of subscore for physician's global assessment ([1]; Week 8 score 2, Week 0 score 1): 0
- Number of cases, cross tabulation of subscore for physician's global assessment ([1]; Week 8 score 2, Week 0 score 2): 14
- Number of cases, cross tabulation of subscore for physician's global assessment ([1]; Week 8 score 2, Week 0 score 3): 0
- Number of cases, cross tabulation of subscore for physician's global assessment ([1]; Week 8 score 3, Week 0 score 0): 0
- Number of cases, cross tabulation of subscore for physician's global assessment ([1]; Week 8 score 3, Week 0 score 1): 0
- Number of cases, cross tabulation of subscore for physician's global assessment ([1]; Week 8 score 3, Week 0 score 2): 0
- Number of cases, cross tabulation of subscore for physician's global assessment ([1]; Week 8 score 3, Week 0 score 3): 0
- Cases by subscore for stool frequency, figure in parentheses ([2]; Week 0, score 0): 3.9
- Number of cases by subscore for stool frequency ([2]; Week 0, score 0): 2
- Cases by subscore for stool frequency, figure in parentheses ([2]; Week 0, score 1): 17.6
- Number of cases by subscore for stool frequency ([2]; Week 0, score 1): 9
- Cases by subscore for stool frequency, figure in parentheses ([2]; Week 0, score 2): 41.2
- Number of cases by subscore for stool frequency ([2]; Week 0, score 2): 21
- Cases by subscore for stool frequency, figure in parentheses ([2]; Week 0, score 3): 37.3
- Number of cases by subscore for stool frequency ([2]; Week 0, score 3): 19
- Cases by subscore for stool frequency, figure in parentheses ([2]; Week 2, score 0): 9.8
- Number of cases by subscore for stool frequency ([2]; Week 2, score 0): 5
- Cases by subscore for stool frequency, figure in parentheses ([2]; Week 2, score 1): 25.5
- Number of cases by subscore for stool frequency ([2]; Week 2, score 1): 13
- Cases by subscore for stool frequency, figure in parentheses ([2]; Week 2, score 2): 49.0
- Number of cases by subscore for stool frequency ([2]; Week 2, score 2): 25
- Cases by subscore for stool frequency, figure in parentheses ([2]; Week 2, score 3): 15.7
- Number of cases by subscore for stool frequency ([2]; Week 2, score 3): 8
